Experimental data: publication PMC6155608, “Substitution at the C-3 Position of Catechins Has an Influence on the Binding Affinities against Serum Albumin” (Molecules : A Journal of Synthetic Chemistry and Natural …, 2017)

Key:
[1] = molecular target: T1, human serum albumin (HSA) (Homo sapiens, UniProt P02768); test: Trp fluorescence quenching of HSA (Stern–Volmer analysis); assay type: binding; set-up: unit not given here; conditions: 0.3 mg/mL HSA, excitation 280 nm; means ± SE
T1 construct: BSA (F-V) and HSA (F-V) were purchased from Nacalai Tesque (Kyoto, Japan); purchased Nacalai Tesque (Kyoto, Japan)
Description: Finally, we investigated the interaction between HSA and catechins and their derivatives (Figure 6). HSA has one Trp residue (Trp-214) located in drug-binding site I, and this residue behaves similarly to the Trp-213 of BSA [22]. […] Moreover, shift of the fluorescence peak wavelength against HSA was weaker than that against BSA.
(§1) Analysis of fluorescence quenching was performed as described previously. A series of mixtures was prepared with catechins or their derivatives at various concentrations (as indicated in each figure legend) and a fixed concentration of BSA (0.3 mg/mL). After the mixture was incubated at 20 °C for 20 min, the fluorescence spectrum of BSA in the mixture was measured at 20 °C in 50 mM sodium phosphate buffer (pH 7.0) at an excitation wavelength of 280 nm and with emission in the range 290–450 nm. All measurements were performed in triplicate. Fluorescence quenching data were analyzed by the Stern–Volmer equation (Equation (1)): F0 = F (1 + Kq × Q),(1) where F0 and F are the relative fluorescence intensities of BSA without and with catechin, respectively, Kq is the Stern–Volmer quenching constant, and Q is the concentration of catechin.

[2] = molecular target: T2, bovine serum albumin (BSA) (Bos taurus, UniProt P02769); test: Trp fluorescence quenching of BSA (Stern–Volmer analysis); assay type: binding; set-up: Kq value (Stern–Volmer quenching constant) against BSA: unit not given here; conditions: 0.3 mg/mL BSA; for Kq value (Stern–Volmer quenching constant) against BSA: 20 °C, 50 mM sodium phosphate buffer pH 7.0, excitation 280 nm, means ± SE
T2 construct: BSA (F-V) and HSA (F-V) were purchased from Nacalai Tesque (Kyoto, Japan); purchased Nacalai Tesque (Kyoto, Japan)
Description: The fluorescence spectra of another natural catechin was also measured (data not shown).
From the data obtained by fluorescence analysis, the Stern–Volmer quenching constants (Kq values) were calculated by the Stern–Volmer relationship.
as §1

T2 sequence (P02769 25-607): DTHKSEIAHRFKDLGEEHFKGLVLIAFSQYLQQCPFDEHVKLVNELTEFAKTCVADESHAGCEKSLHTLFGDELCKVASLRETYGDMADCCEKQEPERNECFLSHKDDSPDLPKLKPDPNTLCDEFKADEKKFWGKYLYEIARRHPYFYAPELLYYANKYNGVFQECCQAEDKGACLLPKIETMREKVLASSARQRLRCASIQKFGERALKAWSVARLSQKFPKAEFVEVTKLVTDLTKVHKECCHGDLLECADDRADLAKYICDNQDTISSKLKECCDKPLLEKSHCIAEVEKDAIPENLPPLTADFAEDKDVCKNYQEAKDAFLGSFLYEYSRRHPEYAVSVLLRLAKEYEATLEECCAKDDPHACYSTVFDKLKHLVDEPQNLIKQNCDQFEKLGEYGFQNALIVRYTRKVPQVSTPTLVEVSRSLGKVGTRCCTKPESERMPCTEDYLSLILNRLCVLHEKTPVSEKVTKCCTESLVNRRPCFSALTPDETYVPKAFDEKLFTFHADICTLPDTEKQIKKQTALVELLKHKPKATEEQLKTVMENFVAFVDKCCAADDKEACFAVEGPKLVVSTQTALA
T1 sequence (P02768 25-609): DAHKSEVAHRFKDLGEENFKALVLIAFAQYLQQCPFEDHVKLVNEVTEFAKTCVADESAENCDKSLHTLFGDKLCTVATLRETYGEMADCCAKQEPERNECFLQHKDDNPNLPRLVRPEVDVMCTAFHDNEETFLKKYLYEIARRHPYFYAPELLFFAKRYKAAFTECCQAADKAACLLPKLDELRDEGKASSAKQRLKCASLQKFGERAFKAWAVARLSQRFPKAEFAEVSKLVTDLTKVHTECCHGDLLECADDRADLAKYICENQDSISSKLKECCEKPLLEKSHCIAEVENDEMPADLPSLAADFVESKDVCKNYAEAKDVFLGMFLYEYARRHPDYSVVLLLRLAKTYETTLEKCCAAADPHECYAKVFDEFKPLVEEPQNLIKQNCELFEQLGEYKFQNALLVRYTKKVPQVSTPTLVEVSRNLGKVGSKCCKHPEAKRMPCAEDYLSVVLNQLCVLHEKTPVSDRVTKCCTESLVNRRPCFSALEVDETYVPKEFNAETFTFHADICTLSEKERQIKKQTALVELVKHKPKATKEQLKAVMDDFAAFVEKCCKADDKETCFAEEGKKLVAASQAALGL

| Compound | Kq value (Stern–Volmer quenching constant) against HSA [1] | Kq value (Stern–Volmer quenching constant) against BSA [2] | effect on fluorescence intensity of Trp residues of BSA ([2]; excitation 280 nm) | shift of fluorescence peak wavelength of BSA ([2]; excitation 280 nm) |
| --- | --- | --- | --- | --- |
| COc1cc(C(=O)O[C@@H]2Cc3c(O)cc(O)cc3O[C@@H]2c2cc(O)c(O)c(O)c2)cc(O)c1O [Methyl-EGCg, epigallocatechin-3-O-methyl gallate] | 0.014 ± 0.0021 | 0.150 ± 0.0109 |  |  |
| O=C(O[C@H]1Cc2c(O)cc(O)cc2O[C@@H]1c1cc(O)c(O)c(O)c1)c1cc(O)c(O)c(O)c1 [GCg] | 0.009 ± 0.0008 | 0.019 ± 0.0030 |  |  |
| Oc1cc(O)c2c(c1)O[C@H](c1cc(O)c(O)c(O)c1)[C@@H](O)C2 [GC] | 0.001 ± 0.0001 | 0.001 ± 0.0001 |  |  |
| Oc1cc(O)c2c(c1)O[C@H](c1ccc(O)c(O)c1)[C@@H](O)C2 [(+)-C, catechin] | 0.002 ± 0.0001 | 0.005 ± 0.0003 |  |  |
| O=C(O[C@H]1Cc2c(O)cc(O)cc2O[C@@H]1c1ccc(O)c(O)c1)c1cc(O)c(O)c(O)c1 [Cg, (−)-catechin gallate] | 0.011 ± 0.0011 | 0.034 ± 0.0092 |  |  |
| O=C(O[C@@H]1Cc2c(O)cc(O)cc2O[C@@H]1c1cc(O)c(O)c(O)c1)c1cc(O)c(O)c(O)c1 [EGCg, (−)-epigallocatechin gallate] | 0.033 ± 0.0065 | 0.225 ± 0.0192 | decreased in a dose-dependent manner | red-shifted |
| O=C(O[C@@H]1Cc2c(O)cc(O)cc2O[C@@H]1c1ccc(O)c(O)c1)c1cc(O)c(O)c(O)c1 [ECg] | 0.007 ± 0.0011 | 0.060 ± 0.0118 |  |  |
| Oc1cc(O)c2c(c1)O[C@H](c1cc(O)c(O)c(O)c1)[C@H](O)C2 [EGC] | 0.001 ± 0.0002 | 0.001 ± 0.0003 |  |  |
| Oc1cc(O)c2c(c1)O[C@H](c1ccc(O)c(O)c1)[C@H](O)C2 [(−)-EC, epicatechin] | 0.006 ± 0.0013 | 0.005 ± 0.0011 |  |  |
